From PubChem BioAssay (NCI)
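Interpolation was linear, between the two tested concentrations surrounding the appropriate level; five concentrations were tested over 48 hours in 96-well plates. Definition used: TGI = concentration required for complete inhibition of growth.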

What was measured:
Assay in all cases: NCI-60 cell line screen, 48 h
SK-MEL-28 melanoma = tested on: SK-MEL-28 melanoma
PC-3 prostate = tested on: PC-3 prostate
COLO 205 colon = tested on: COLO 205 colon
EKVX NSCLC = tested on: EKVX NSCLC
RPMI-8226 leukemia = tested on: RPMI-8226 leukemia
MDA-N = tested on: MDA-N
UACC-62 melanoma = tested on: UACC-62 melanoma
MALME-3M melanoma = tested on: MALME-3M melanoma
M14 melanoma = tested on: M14 melanoma
HCT-15 colon = tested on: HCT-15 colon
KM12 colon = tested on: KM12 colon
CAKI-1 renal = tested on: CAKI-1 renal
HT29 colon = tested on: HT29 colon
NCI-H226 lung = tested on: NCI-H226 lung
HCT-116 colon = tested on: HCT-116 colon
UACC-257 melanoma = tested on: UACC-257 melanoma
MCF7 breast = tested on: MCF7 breast
MDA-MB-435 = tested on: MDA-MB-435
HL-60(TB) leukemia = tested on: HL-60(TB) leukemia
SF-539 CNS = tested on: SF-539 CNS
OVCAR-3 ovarian = tested on: OVCAR-3 ovarian
HOP-92 NSCLC = tested on: HOP-92 NSCLC
SF-268 CNS = tested on: SF-268 CNS
HS 578T breast = tested on: HS 578T breast
LOX IMVI melanoma = tested on: LOX IMVI melanoma
A498 renal = tested on: A498 renal
OVCAR-5 ovarian = tested on: OVCAR-5 ovarian
RXF 393 renal = tested on: RXF 393 renal
DU-145 prostate = tested on: DU-145 prostate
BT-549 breast = tested on: BT-549 breast
CCRF-CEM leukemia = tested on: CCRF-CEM leukemia
SF-295 CNS = tested on: SF-295 CNS
786-0 renal = tested on: 786-0 renal
A549 NSCLC = tested on: A549 NSCLC
NCI-H23 lung = tested on: NCI-H23 lung
SNB-75 CNS = tested on: SNB-75 CNS
SNB-19 CNS = tested on: SNB-19 CNS
OVCAR-8 ovarian = tested on: OVCAR-8 ovarian
SK-MEL-5 melanoma = tested on: SK-MEL-5 melanoma
K-562 leukemia = tested on: K-562 leukemia
SK-OV-3 ovarian = tested on: SK-OV-3 ovarian
ACHN renal = tested on: ACHN renal
MDA-MB-231 breast = tested on: MDA-MB-231 breast
NCI-H522 lung = tested on: NCI-H522 lung
IGROV1 ovarian = tested on: IGROV1 ovarian
HOP-62 NSCLC = tested on: HOP-62 NSCLC
SR leukemia = tested on: SR leukemia
SK-MEL-2 melanoma = tested on: SK-MEL-2 melanoma
HCC-2998 colon = tested on: HCC-2998 colon
SN12C renal = tested on: SN12C renal
MOLT-4 leukemia = tested on: MOLT-4 leukemia
OVCAR-4 ovarian = tested on: OVCAR-4 ovarian
TK-10 renal = tested on: TK-10 renal
NCI/ADR-RES ovarian = tested on: NCI/ADR-RES ovarian
T-47D breast = tested on: T-47D breast
NCI-H460 lung = tested on: NCI-H460 lung
U251 CNS = tested on: U251 CNS
SW-620 colon = tested on: SW-620 colon
UO-31 renal = tested on: UO-31 renal

OC(CC(CC(O)(C(F)(F)F)C(F)(F)F)=NN=C(CC(O)(C(F)(F)F)C(F)(F)F)CC(O)(C(F)(F)F)C(F)(F)F)(C(F)(F)F)C(F)(F)F
TGI (SK-MEL-28 melanoma): > 10 µM
TGI (PC-3 prostate): > 10 µM
TGI (COLO 205 colon): > 10 µM
TGI (EKVX NSCLC): > 10 µM
TGI (RPMI-8226 leukemia): > 10 µM
TGI (MDA-N): > 10 µM
TGI (UACC-62 melanoma): > 10 µM
TGI (MALME-3M melanoma): > 10 µM
TGI (M14 melanoma): > 10 µM
TGI (HCT-15 colon): > 10 µM
TGI (KM12 colon): > 10 µM
TGI (CAKI-1 renal): > 10 µM
TGI (HT29 colon): > 10 µM
TGI (NCI-H226 lung): > 10 µM
TGI (HCT-116 colon): > 10 µM
TGI (UACC-257 melanoma): > 10 µM
TGI (MCF7 breast): > 10 µM
TGI (MDA-MB-435): > 10 µM
TGI (HL-60(TB) leukemia): > 10 µM
TGI (SF-539 CNS): > 10 µM
TGI (OVCAR-3 ovarian): > 10 µM
TGI (HOP-92 NSCLC): > 10 µM
TGI (SF-268 CNS): > 10 µM
TGI (HS 578T breast): > 10 µM
TGI (LOX IMVI melanoma): > 10 µM
TGI (A498 renal): > 10 µM
TGI (OVCAR-5 ovarian): > 10 µM
TGI (RXF 393 renal): > 10 µM
TGI (DU-145 prostate): > 10 µM
TGI (BT-549 breast): > 10 µM
TGI (CCRF-CEM leukemia): > 10 µM
TGI (SF-295 CNS): > 10 µM
TGI (786-0 renal): > 10 µM
TGI (A549 NSCLC): > 10 µM
TGI (NCI-H23 lung): > 10 µM
TGI (SNB-75 CNS): > 10 µM
TGI (SNB-19 CNS): > 10 µM
TGI (OVCAR-8 ovarian): > 10 µM
TGI (SK-MEL-5 melanoma): > 10 µM
TGI (K-562 leukemia): > 10 µM
TGI (SK-OV-3 ovarian): > 10 µM
TGI (ACHN renal): > 10 µM
TGI (MDA-MB-231 breast): > 10 µM
TGI (NCI-H522 lung): > 10 µM
TGI (IGROV1 ovarian): > 10 µM
TGI (HOP-62 NSCLC): > 10 µM
TGI (SR leukemia): > 10 µM
TGI (SK-MEL-2 melanoma): > 10 µM
TGI (HCC-2998 colon): > 10 µM
TGI (SN12C renal): > 10 µM
TGI (MOLT-4 leukemia): > 10 µM
TGI (OVCAR-4 ovarian): > 10 µM
TGI (TK-10 renal): > 10 µM
TGI (NCI/ADR-RES ovarian): > 10 µM
TGI (T-47D breast): > 10 µM
TGI (NCI-H460 lung): > 10 µM
TGI (U251 CNS): > 10 µM
TGI (SW-620 colon): > 10 µM

CCOC(=O)[C@@H]1[C@@H]2NC(=O)N[C@@]1(C)Oc1ccccc12
TGI (SK-MEL-28 melanoma): > 100 µM
TGI (PC-3 prostate): > 100 µM
TGI (COLO 205 colon): > 100 µM
TGI (EKVX NSCLC): > 100 µM
TGI (RPMI-8226 leukemia): > 100 µM
TGI (MDA-N): > 100 µM
TGI (UACC-62 melanoma): > 100 µM
TGI (MALME-3M melanoma): > 100 µM
TGI (M14 melanoma): > 100 µM
TGI (HCT-15 colon): > 100 µM
TGI (KM12 colon): > 100 µM
TGI (CAKI-1 renal): > 100 µM
TGI (HT29 colon): > 100 µM
TGI (NCI-H226 lung): > 100 µM
TGI (HCT-116 colon): > 100 µM
TGI (UACC-257 melanoma): > 100 µM
TGI (MCF7 breast): > 100 µM
TGI (MDA-MB-435): > 100 µM
TGI (HL-60(TB) leukemia): > 100 µM
TGI (SF-539 CNS): > 100 µM
TGI (OVCAR-3 ovarian): > 100 µM
TGI (HOP-92 NSCLC): > 100 µM
TGI (SF-268 CNS): > 100 µM
TGI (UO-31 renal): > 100 µM
TGI (HS 578T breast): > 100 µM
TGI (LOX IMVI melanoma): > 100 µM
TGI (A498 renal): > 100 µM
TGI (OVCAR-5 ovarian): > 100 µM
TGI (RXF 393 renal): > 100 µM
TGI (DU-145 prostate): > 100 µM
TGI (BT-549 breast): > 100 µM
TGI (CCRF-CEM leukemia): > 100 µM
TGI (SF-295 CNS): > 100 µM
TGI (786-0 renal): > 100 µM
TGI (NCI-H23 lung): > 100 µM
TGI (SNB-75 CNS): > 100 µM
TGI (SNB-19 CNS): > 100 µM
TGI (OVCAR-8 ovarian): > 100 µM
TGI (SK-MEL-5 melanoma): > 100 µM
TGI (K-562 leukemia): > 100 µM
TGI (SK-OV-3 ovarian): > 100 µM
TGI (ACHN renal): > 100 µM
TGI (MDA-MB-231 breast): > 100 µM
TGI (NCI-H522 lung): > 100 µM
TGI (IGROV1 ovarian): > 100 µM
TGI (HOP-62 NSCLC): > 100 µM
TGI (SR leukemia): > 100 µM
TGI (SK-MEL-2 melanoma): > 100 µM
TGI (HCC-2998 colon): > 100 µM
TGI (SN12C renal): > 100 µM
TGI (MOLT-4 leukemia): > 100 µM
TGI (OVCAR-4 ovarian): > 100 µM
TGI (TK-10 renal): > 100 µM
TGI (NCI/ADR-RES ovarian): > 100 µM
TGI (T-47D breast): > 100 µM
TGI (NCI-H460 lung): > 100 µM
TGI (U251 CNS): > 100 µM
TGI (SW-620 colon): > 100 µM
